Experimental data taken from patent US12042503B2, “Compositions and methods for treating coronavirus infections” (priority 2020, dated 2024).
pEC50: −log10 of the molar value.

Assays:
IP receptor (PTGIR) = target: T1, IP receptor (PTGIR) (Homo sapiens, UniProt P43119); experiment: PathHunter beta-arrestin cell-based prostanoid receptor assay, IP; settings: Run 1, GP1681 starting concentration 4 uM; β-Arrestin; read-out: EC50
T1 construct: host or cells: PathHunter beta-arrestin cell line
Protocol: (§1) DiscoverX cell-based ligand binding assays were performed in the PathHunter beta-arrestin (EP1, EP2, EP3, EP4, FP, IP, and TP receptors) or cAMP Hunter™ (DP receptor) cell lines.
(§2) Receptor binding studies were performed in either the PathHunter® b-Arrestin (EP1, EP2, EP3, EP4, FP, IP, and TP receptors) or cAMP Hunter™ (DP receptor) cell lines. A 10 mM working stock of GP1681 was created in 1×PBS, pH 7.4. All assays were carried out in duplicate with 10 individual concentrations of GP1681. A three-fold dilution series of GP1681 was established for the initial or pilot experiment with a starting concentration of 4 uM (starting concentration was chosen based on previous Gemmus Pharma preclinical experimental results).
(§3) GP1681 was incubated with cells lines at either 37° C. or room temperature, for 90-180 minutes (temperatures and incubation times are all dependent on established optimized procedures for each receptor cell line) after which cell wells were processed and signal production detected. […] Vehicle only controls (PBS, pH 7.4) were also included for each receptor cell line. Receptor binding activity was analyzed using CBIS data analysis suite (ChemInnovation, CA). The percentage of activity was calculated using the following formula: % Activity=100%×(mean RLU of test sample−mean RLU of vehicle control)/(mean MAX control ligand−mean RLU of vehicle control). Dose curves were performed and EC50 values determined.

EP2 receptor (PTGER2) = target: T2, EP2 receptor (PTGER2) (Homo sapiens, UniProt P43116); experiment: PathHunter beta-arrestin cell-based prostanoid receptor assay, EP2
T2 construct: host or cells: PathHunter beta-arrestin cell line
T2 sequence (P43116 whole entry): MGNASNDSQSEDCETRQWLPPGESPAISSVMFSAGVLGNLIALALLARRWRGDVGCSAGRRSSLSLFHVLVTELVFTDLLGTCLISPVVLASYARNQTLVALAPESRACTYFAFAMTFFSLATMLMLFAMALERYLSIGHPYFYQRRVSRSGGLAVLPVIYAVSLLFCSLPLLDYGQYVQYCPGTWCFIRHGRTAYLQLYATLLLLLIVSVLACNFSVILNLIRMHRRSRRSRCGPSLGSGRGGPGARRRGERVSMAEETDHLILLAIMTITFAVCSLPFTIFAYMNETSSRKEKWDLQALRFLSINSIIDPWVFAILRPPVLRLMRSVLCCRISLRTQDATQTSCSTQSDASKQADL
Protocol: as §1, §2
(§4) GP1681 was incubated with cells lines at either 37° C. or room temperature, for 90-180 minutes (temperatures and incubation times are all dependent on established optimized procedures for each receptor cell line) after which cell wells were processed and signal production detected. […] Receptor binding activity was analyzed using CBIS data analysis suite (ChemInnovation, CA). The percentage of activity was calculated using the following formula: % Activity=100%×(mean RLU of test sample−mean RLU of vehicle control)/(mean MAX control ligand−mean RLU of vehicle control). Dose curves were performed and EC50 values determined.

EP4 receptor (PTGER4) [1] = target: T3, EP4 receptor (PTGER4) (Homo sapiens, UniProt P35408); experiment: PathHunter beta-arrestin cell-based prostanoid receptor assay, EP4; settings: β-Arrestin
T3 construct: expressed in transfected cells; host or cells: PathHunter β-Arrestin PTGER4 (EP4) cell line
T3 sequence (P35408 whole entry): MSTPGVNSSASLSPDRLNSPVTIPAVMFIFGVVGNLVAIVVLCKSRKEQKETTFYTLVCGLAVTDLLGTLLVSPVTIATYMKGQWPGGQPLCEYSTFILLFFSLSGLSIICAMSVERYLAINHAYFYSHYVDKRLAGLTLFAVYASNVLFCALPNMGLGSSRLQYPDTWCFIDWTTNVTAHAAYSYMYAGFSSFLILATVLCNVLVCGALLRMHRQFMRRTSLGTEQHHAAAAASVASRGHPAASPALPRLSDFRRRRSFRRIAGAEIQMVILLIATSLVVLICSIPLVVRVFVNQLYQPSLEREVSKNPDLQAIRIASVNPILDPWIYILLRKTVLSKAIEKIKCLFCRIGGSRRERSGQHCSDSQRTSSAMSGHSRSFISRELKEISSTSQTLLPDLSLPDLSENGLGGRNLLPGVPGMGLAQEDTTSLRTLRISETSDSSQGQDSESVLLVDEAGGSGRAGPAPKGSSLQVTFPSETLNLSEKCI
Protocol: as §1, §2
as §4, with “determined. […]” for “determined.”

FP receptor (PTGFR) = target: T4, FP receptor (PTGFR) (Homo sapiens, UniProt P43088); experiment: PathHunter beta-arrestin cell-based prostanoid receptor assay, FP
T4 construct: host or cells: PathHunter beta-arrestin cell line
T4 sequence (P43088 whole entry): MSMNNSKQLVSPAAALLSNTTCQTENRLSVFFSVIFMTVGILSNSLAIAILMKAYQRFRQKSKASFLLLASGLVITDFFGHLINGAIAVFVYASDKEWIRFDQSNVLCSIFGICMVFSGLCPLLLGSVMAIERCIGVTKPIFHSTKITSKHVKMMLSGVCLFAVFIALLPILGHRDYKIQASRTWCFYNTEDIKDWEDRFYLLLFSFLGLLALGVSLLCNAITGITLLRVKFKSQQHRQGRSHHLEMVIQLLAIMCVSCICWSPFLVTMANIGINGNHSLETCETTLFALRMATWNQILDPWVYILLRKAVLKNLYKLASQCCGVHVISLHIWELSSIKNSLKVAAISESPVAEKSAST
Protocol: as §1, §2, §4

DP1 receptor (PTGDR) = target: T5, DP1 receptor (PTGDR) (Homo sapiens, UniProt Q13258); experiment: cAMP Hunter cell-based prostanoid receptor assay, DP receptor; settings: HitHunter cAMP cell line
T5 construct: host or cells: cAMP Hunter (DP receptor) cell line
T5 sequence (Q13258 1-359): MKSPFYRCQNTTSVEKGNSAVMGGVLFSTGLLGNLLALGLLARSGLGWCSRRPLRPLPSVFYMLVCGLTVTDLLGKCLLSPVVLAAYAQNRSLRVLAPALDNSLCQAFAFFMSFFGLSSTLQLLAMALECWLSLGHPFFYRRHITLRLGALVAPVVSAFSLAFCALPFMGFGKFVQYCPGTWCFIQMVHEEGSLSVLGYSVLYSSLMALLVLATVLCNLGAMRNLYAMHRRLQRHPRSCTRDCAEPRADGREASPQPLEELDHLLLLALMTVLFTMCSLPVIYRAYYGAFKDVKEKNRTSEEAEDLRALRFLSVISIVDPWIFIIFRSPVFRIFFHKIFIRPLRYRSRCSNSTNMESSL
Protocol: as §1, §2, §3
The four assays were repeated with a higher starting concentration.
The second experimental run of the receptor binding assay was performed with these last four cell lines including GP1681 and their respective positive and negative (vehicle, PBS pH 7.4) controls. A 10 mM GP1681 working stock was again created in 1×PBS, pH 7.4. A three-fold serial dilution scheme was again used for GP1681 samples, starting this time at a concentration of 500 μM. The remainder of the second experimental run was performed in the same manner as run 1.

EP4 receptor (PTGER4) [2] = target: T3, EP4 receptor (PTGER4); experiment: PathHunter β-Arrestin PTGER4 (EP4) agonist assay, optimisation of cell density and temperature; type: cell-based; settings: for EC50: read-out: RC50 (μM) / EC50, agonist
Protocol: This Example describes antagonist assay experiments performed with known EP4 receptor inhibitors. Agonist controls and antagonist binding studies were performed in the PathHunter® β-Arrestin PTGER4 (EP4) cell lines. The PathHunter® β-Arrestin assay monitors activation by bound ligands of a GPCR in a homogenous, non-imaging assay format using Enzyme Fragment Complementation (EFC) with β-galactosidase (β-Gal) as the functional reporter. A fresh 10 mM working stock of GP1681 was created in the vehicle (1×PBS, pH 7.4). Prior to setting up the GP1681-antagonist assays, the parameters of the GP1681 agonist assay were optimized for most efficient cellular activation and expression of the reporter molecule via GP1681 receptor (PTGER4) binding. Two different cell densities (5K vs 7.5K) and incubation temperatures (room temperature and 37 C) were evaluated in standard agonist format. […] Vehicle only controls (1×PBS, pH 7.4) were also included for each receptor cell line. Receptor binding activity was analyzed using CBIS data analysis suite (ChemInnovation Software, Inc., San Diego, CA, USA).
The percentage of activity was calculated using the following formula: % Activity=100%×(mean RLU of test sample−mean RLU of vehicle control)/(mean MAX control ligand−mean RLU of vehicle control). Dose curves were performed and EC50 values determined. In all rows, the assay was Arrestin, the assay target was PTGER4, and the result type was EC50 for all agonists, and IC50 for all antagonists. NI indicates no inhibition, N is number of replicates, K is cell density, and RT is room temperature.

EP3 receptor (PTGER3) = target: T6, EP3 receptor (PTGER3) (Homo sapiens, UniProt P43115); experiment: PathHunter beta-arrestin cell-based prostanoid receptor assay, EP3; settings: β-Arrestin
T6 construct: host or cells: PathHunter beta-arrestin cell line
T6 sequence (P43115 1-390): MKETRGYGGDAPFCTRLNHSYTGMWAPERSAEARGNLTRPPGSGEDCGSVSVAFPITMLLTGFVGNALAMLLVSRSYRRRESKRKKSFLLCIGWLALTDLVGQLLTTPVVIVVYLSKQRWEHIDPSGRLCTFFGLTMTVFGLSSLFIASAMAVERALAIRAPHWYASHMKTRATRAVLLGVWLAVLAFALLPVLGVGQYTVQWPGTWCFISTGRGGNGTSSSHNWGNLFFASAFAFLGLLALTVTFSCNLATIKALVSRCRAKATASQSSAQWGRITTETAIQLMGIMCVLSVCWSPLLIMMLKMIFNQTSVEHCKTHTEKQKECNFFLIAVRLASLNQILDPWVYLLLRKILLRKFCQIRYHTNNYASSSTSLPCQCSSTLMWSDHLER
Protocol: as §1, §2
as §4, with “determined. […]” for “determined.”

[3] = Run 1, GP1681 starting concentration 4 uM, β-Arrestin
[4] = Run 1, GP1681 starting concentration 4 uM, curve for GP1681 not fully sigmoidal
[5] = Run 2, GP1681 starting concentration 500 μM

T1 sequence (P43119 whole entry): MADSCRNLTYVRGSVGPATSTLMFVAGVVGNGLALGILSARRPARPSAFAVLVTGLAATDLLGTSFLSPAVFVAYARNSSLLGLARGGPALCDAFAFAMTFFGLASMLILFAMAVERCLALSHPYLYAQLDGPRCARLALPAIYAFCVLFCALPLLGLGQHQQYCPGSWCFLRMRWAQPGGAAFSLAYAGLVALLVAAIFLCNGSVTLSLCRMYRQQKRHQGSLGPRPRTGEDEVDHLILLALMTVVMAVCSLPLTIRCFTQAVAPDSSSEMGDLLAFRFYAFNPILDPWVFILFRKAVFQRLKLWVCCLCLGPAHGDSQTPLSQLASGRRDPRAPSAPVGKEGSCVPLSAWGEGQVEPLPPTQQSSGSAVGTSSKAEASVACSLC

Compound: CC#CCC(C)C(O)C=CC1C(O)CC2Oc3c(CCCC(=O)O)cccc3C21 (single isomer, unassigned) [GP1681, esuberaprost]
- pEC50 (IP receptor (PTGIR)): 6.96
- binding to EP2 receptor, in words (EP2 receptor (PTGER2)): does not bind
- pEC50 (EP2 receptor (PTGER2); [3]): < 5.40
- pEC50 (EP4 receptor (PTGER4) [1]; [4]): 5.76
- pEC50 (EP4 receptor (PTGER4) [1]; [5]): 4.74
- binding to FP receptor, in words (FP receptor (PTGFR)): does not bind
- pEC50 (FP receptor (PTGFR); [3]): < 5.40
- pEC50 (DP1 receptor (PTGDR); [4]): 5.87
- pEC50 (DP1 receptor (PTGDR); [5]): 5.88
- EC50 (EP4 receptor (PTGER4) [2]; 5K 37C, N not given): 11.9 µM
- EC50 (EP4 receptor (PTGER4) [2]; N = 1, 5K 37C): 23.4 µM
- EC50 (EP4 receptor (PTGER4) [2]; N = 1, 5K RT): 12.7 µM
- EC50 (EP4 receptor (PTGER4) [2]; N = 1, 7.5K 37C): 22 µM
- EC50 (EP4 receptor (PTGER4) [2]; N = 1, 7.5K RT): 14.8 µM
- EC50 (EP4 receptor (PTGER4) [2]; N = 2, 5K 37C): 16.2 µM
- EC50 (EP4 receptor (PTGER4) [2]; N = 2, 5K RT): 16.1 µM
- EC50 (EP4 receptor (PTGER4) [2]; N = 2, 7.5K 37C): 18 µM
- EC50 (EP4 receptor (PTGER4) [2]; N = 2, 7.5K RT): 11.1 µM
- EC80 concentration (EP4 receptor (PTGER4) [2]; from GP1681 binding curves, used in the antagonist assays): 45 µM
- pEC50 (EP3 receptor (PTGER3); [4]): 5.74
- pEC50 (EP3 receptor (PTGER3); [5]): 5.27
